According to patent US20040072824A1, “Methods and compositions for the treatment of cancer” (priority 2001, published 2004):
Where two headings read alike, the source gives them in different places.

Legend:
U937 cells [1] = assay: Curative effects on palpable tumors, U937 cells in scid/scid mice; type: in vivo; conditions: for tumor growth: daily administration once tumors palpable (4 mm^3)
Experimental: In this series of experiments, effects of various compounds of the present invention on tumor development were tested using two protocols. The first protocol is directed to the testing of curative effects of these compounds in different cell lines. In this protocol, cancerous cells are inoculated to the animals, and the inoculated animals were left without any further treatment until the development of tumors. As soon as the tumors became palable (4 mm^3), the compounds of this invention were administered daily to the animals. Two different cell lines, i.e., U937 and MDA-MB-231 (breast cancer line), were used for this protocol to inoculate scid/scid mice.

U937 cells [2] = assay: Antineoplastic activity, U937 cells injected in scid/scid mice, treatment from day 1; type: in vivo; conditions: 100 mg/kg; six mice
Experimental: Ten million U937 cells were subcutaneously injected into scid/scid mice. One injection was carried out per each of the 6 mice tested per set. The excipient or the compounds tested were administered intraperitoneally on day 1, i.e., the day of U937 cell line inoculation, of the experiment. The excipients or compounds were administered once daily. The tumor sizes were measured on day 5, day 8, day 12, day 14 and day 19 after the injection.

U937 = type: in vivo; conditions: treatment from day 1, cells inoculated after more than 24 hours, daily administration
Experimental: The second protocol was designed to test the preventive effects of the compounds of this invention on tumorigenesis. In this protocol, the animals have been treated with various compounds of the present invention on day 1. After more than 24 hours, tumoral cells were inoculated. The administration of the compounds of this invention was maintained daily. The cell line used for this test was U937.

[3] = test system: K562, U937, MDA-DB231, BT20 and MCF7 cell lines; assay: Cytotoxic effects in multi-well plate, 6 days, ATP level (CellTiter-Glo); conditions: 2x10^-9 M to 2x10^-4 M
Experimental: In order to test the cytotoxic effects of various compounds, a test was developed in a multi-well plate. Two leukemic cell lines, namely K562 and U937, and three breast cancer cell lines, namely MDA-DB231, BT20 and MCF7 were used for this test.
The cells were seeded at low density and were left for 24 hours to recover and reach a new logarithmic phase of growth. Various concentrations of the compounds being tested, ranging from 2×10^−9 M to 2×10^−4 M, were added in triplicate. The mixture was incubated for 6 days, during which approximately 4 doublings of the cell population occurred, to allow the cells to reach subconfluence.
The viability of the cultured cells after the treatment by the compounds was determined by quantifying the level of ATP since the level of ATP is directly proportional to the number of viable cells present in the culture. The ATP level was quantified by using CellTiter-Glo™ (Promega) luminescent test for cell viability.

[4] = test system: blastic cells from AML patients; assay: Inhibition of viability of fresh leukemic cells (trypan blue exclusion); type: cell-based, human; conditions: Homo sapiens, day 3; for cytotoxicity at 10 µM: 10^-5 M; for cytotoxicity at 1 µM: 10^-6 M
Experimental: Samples for AML 1 through 5, AML 1 being the least and AML 5 being the most differentiated, were obtained. […] Cells were incubated with or without […] anti-histamine derivatives. Polaramine was included as a negative control. Cell counts were assessed by trypan blue exclusion test at day 3 after the incubation. Morphological analysis was performed using Wright-Giemsa staining on cytocentrifuge preparations. The results were expressed as % inhibition of growth as compared to negative control.

[5] = test system: Poly ADP-Ribose Polymerase (PARP); assay: PARP cleavage in treated U937 cells (western blot); type: cell-based; conditions: 24 hours
Experimental: U937 cells were treated with various concentrations of hydroxyzine and promethazine for 24 hours. The proteins were isolated from these cells and loaded onto a gel for a western blot analysis. A specific anti-PARP antibody was used to visualize the location of PARP.

[6] = 72 h, MEAN over AML patients, read-out: In Vitro Percent Inhibition of Viability, MEAN
[7] = 72 h, patient ID 3, FAB AML2, read-out: In Vitro Percent Inhibition of Viability
[8] = 72 h, patient ID 4, FAB AML2, read-out: In Vitro Percent Inhibition of Viability
[9] = 72 h, patient ID 5, FAB AML2, read-out: In Vitro Percent Inhibition of Viability
[10] = 72 h, patient ID 10, FAB AML4, read-out: In Vitro Percent Inhibition of Viability
[11] = 72 h, patient ID 11, FAB AML5, read-out: In Vitro Percent Inhibition of Viability
[12] = 72 h, patient ID 12, FAB AML5, read-out: In Vitro Percent Inhibition of Viability
[13] = 72 h, patient ID 13, FAB AML5, read-out: In Vitro Percent Inhibition of Viability
[14] = 72 h, patient ID 14, FAB AML5, read-out: In Vitro Percent Inhibition of Viability
[15] = 72 h, patient ID 15, FAB AML5, read-out: In Vitro Percent Inhibition of Viability
[16] = AML1, 72 h, patient ID 1, FAB AML1, read-out: In Vitro Percent Inhibition of Viability
[17] = AML1, 72 h, patient ID 2, FAB AML1, read-out: In Vitro Percent Inhibition of Viability
[18] = AML3, 72 h, patient ID 6, FAB AML3, read-out: In Vitro Percent Inhibition of Viability
[19] = AML3, 72 h, patient ID 7, FAB AML3, read-out: In Vitro Percent Inhibition of Viability
[20] = AML3, 72 h, patient ID 8, FAB AML3, read-out: In Vitro Percent Inhibition of Viability
[21] = AML3, 72 h, patient ID 9, FAB AML3, read-out: In Vitro Percent Inhibition of Viability

Structure (SMILES)	tumor growth compared to the negative control (U937)	tumor growth (U937 cells [1])	cytotoxic effect group [3]	cytotoxicity at 10 µM [4, 6] [%]	cytotoxicity at 1 µM [4, 6] [%]	cytotoxicity at 10 µM [4, 7] [%]	cytotoxicity at 1 µM [4, 7] [%]	cytotoxicity at 10 µM [4, 8] [%]	cytotoxicity at 1 µM [4, 8] [%]	cytotoxicity at 10 µM [4, 9] [%]	cytotoxicity at 1 µM [4, 9] [%]	cytotoxicity at 10 µM [4, 10] [%]	cytotoxicity at 1 µM [4, 10] [%]	cytotoxicity at 10 µM [4, 11] [%]	cytotoxicity at 1 µM [4, 11] [%]	cytotoxicity at 10 µM [4, 12] [%]	cytotoxicity at 10 µM [4, 13] [%]	cytotoxicity at 1 µM [4, 13] [%]	cytotoxicity at 10 µM [4, 14] [%]	cytotoxicity at 1 µM [4, 14] [%]	further results
Nc1ccn([C@@H]2O[C@H](CO)[C@@H](O)[C@@H]2O)c(=O)n1 [ARA-C, cytarabine]	–	–	–	–	–	–	–	–	–	–	–	–	–	–	–	–	–	–	–	–	tumor development (U937 cells [1]; positive control, treated once tumors palpable): no tumor development; mice that developed a tumor (U937 cells [2]): none of the six
CN(C)CCCN1c2ccccc2Sc2ccc(Cl)cc21 [S59, chlorpromazine]	decrease in tumor growth	delay in the tumor growth	I	37	15	48	7	22	9	37	0	51	33	25	32	51	31	13	40	38	cytotoxicity at 10 µM [4, 15]: 20%; cytotoxicity at 1 µM [4, 15]: 17%; cytotoxicity at 10 µM [4, 16]: 8%; cytotoxicity at 1 µM [4, 16]: 8%; cytotoxicity at 10 µM [4, 17]: 35%; cytotoxicity at 1 µM [4, 17]: 5%; cytotoxicity at 10 µM [4, 18]: 24%; cytotoxicity at 1 µM [4, 18]: 13%; cytotoxicity at 10 µM [4, 19]: 53%; cytotoxicity at 1 µM [4, 19]: 3%; cytotoxicity at 10 µM [4, 20]: 44%; cytotoxicity at 1 µM [4, 20]: 14%; cytotoxicity at 10 µM [4, 21]: 71%; cytotoxicity at 1 µM [4, 21]: 11%
CSc1ccc2c(c1)N(CCC1CCCCN1C)c1ccccc1S2 (centres unmarked) [S60, thioridazine]	decrease in tumor growth	delay in the tumor growth	I	53	14	91	12	42	19	51	35	48	6	43	39	88	62	15	15	25	cytotoxicity at 10 µM [4, 15]: 27%; cytotoxicity at 1 µM [4, 15]: 0%; cytotoxicity at 10 µM [4, 16]: 42%; cytotoxicity at 1 µM [4, 16]: 8%; cytotoxicity at 10 µM [4, 17]: 13%; cytotoxicity at 1 µM [4, 17]: 8%; cytotoxicity at 10 µM [4, 18]: 89%; cytotoxicity at 1 µM [4, 18]: 13%; cytotoxicity at 10 µM [4, 19]: 95%; cytotoxicity at 1 µM [4, 19]: 12%; cytotoxicity at 10 µM [4, 20]: 56%; cytotoxicity at 1 µM [4, 20]: 0%; cytotoxicity at 10 µM [4, 21]: 38%; cytotoxicity at 1 µM [4, 21]: 0%
CN[C@@H]1C[C@H]2O[C@@](C)([C@@H]1OC)n1c3ccccc3c3c4c(c5c6ccccc6n2c5c31)C(=O)NC4 [staurosporine]	–	–	–	–	–	–	–	–	–	–	–	–	–	–	–	–	–	–	–	–	PARP cleavage (induction of apoptosis) [5]: cleave PARP
